Laboratory results as given in ChEMBL document CHEMBL1201862, “PubChem BioAssay data set” (2004).
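Method: 48-hour compound exposure of cells in 96-well plates, five concentrations, linear interpolation of endpoints. GI50 marks 50% less growth.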 Activity calls are given as the source filed them. Rule as the data show it: active = GI50 up to about 1.1 µM and inactive = higher.

Experiments:
Assay in all cases: NCI tumour cell line growth inhibition, 48 h
HCC 2998 = test system: HCC 2998
SF-539 = test system: SF-539
TK-10 = test system: TK-10
SNB-78 = test system: SNB-78
M19-MEL = test system: M19-MEL
Malme-3M = test system: Malme-3M
NCI-H522 = test system: NCI-H522
UO-31 = test system: UO-31
RPMI-8226 = test system: RPMI-8226
SK-OV-3 = test system: SK-OV-3
SW-620 = test system: SW-620
RXF 393 = test system: RXF 393
DMS-114 = test system: DMS-114
SN12C = test system: SN12C
SK-MEL-28 = test system: SK-MEL-28
A498 = test system: A498
SF-268 = test system: SF-268
SK-MEL-2 = test system: SK-MEL-2
SR = test system: SR
UACC-62 = test system: UACC-62
HCT-116 = test system: HCT-116
K562 = test system: K562
COLO 205 = test system: COLO 205
A549 = test system: A549
DMS-273 = test system: DMS-273
CCRF-CEM = test system: CCRF-CEM
XF498 = test system: XF498
KM12 = test system: KM12
OVCAR-8 = test system: OVCAR-8
SF-295 = test system: SF-295
HT-29 = test system: HT-29
OVCAR-3 = test system: OVCAR-3
HOP-92 = test system: HOP-92
NCI-H23 = test system: NCI-H23
KM-20L2 = test system: KM-20L2
SNB-75 = test system: SNB-75
MOLT-4 = test system: MOLT-4
NCI-H226 = test system: NCI-H226
UACC-257 = test system: UACC-257
LOX IMVI = test system: LOX IMVI
NCI-H460 = test system: NCI-H460
U-251 = test system: U-251
ACHN = test system: ACHN
786-0 = test system: 786-0
DLD-1 = test system: DLD-1
EKVX = test system: EKVX
IGROV-1 = test system: IGROV-1
HL-60 = test system: HL-60
HCT-15 = test system: HCT-15
M14 = test system: M14
SNB-19 = test system: SNB-19
OVCAR-4 = test system: OVCAR-4
HOP-62 = test system: HOP-62
LXFL 529 = test system: LXFL 529
HOP-18 = test system: HOP-18
MCF7 = test system: MCF7
MDA-MB-231 = test system: MDA-MB-231
SK-MEL-5 = test system: SK-MEL-5
CAKI-1 = test system: CAKI-1
OVCAR-5 = test system: OVCAR-5
MDA-MB-435 = test system: MDA-MB-435
NCI/ADR-RES = test system: NCI/ADR-RES
MDA-N = test system: MDA-N
BT-549 = test system: BT-549
PC-3 = test system: PC-3
DU-145 = test system: DU-145
Hs-578T = test system: Hs-578T
T47D = test system: T47D

Q: For COc1ccc(C(=O)N/N=C/c2c(C)n(C)n(-c3ccccc3)c2=O)cc1, which GI50 (HCC 2998) is on record?
A: > 100000 nM (inactive)

Q: What about the GI50 (SF-539) of the same molecule?
A: > 100000 nM (inactive)

Q: And the GI50 (TK-10)?
A: > 100000 nM (inactive)

Q: What about the GI50 (SNB-78) of the same molecule?
A: > 100000 nM (inactive)

Q: And the GI50 (M19-MEL)?
A: > 100000 nM (inactive)

Q: What about the GI50 (Malme-3M) of the same molecule?
A: > 100000 nM (inactive)

Q: And the GI50 (NCI-H522)?
A: > 100000 nM (inactive)

Q: And the GI50 (UO-31)?
A: > 100000 nM (inactive)

Q: And the GI50 (RPMI-8226)?
A: > 100000 nM (inactive)

Q: What about the GI50 (SK-OV-3) of the same molecule?
A: > 100000 nM (inactive)

Q: And the GI50 (SW-620)?
A: > 100000 nM (inactive)

Q: And the GI50 (RXF 393)?
A: > 100000 nM (inactive)

Q: And the GI50 (DMS-114)?
A: > 100000 nM (inactive)

Q: What about the GI50 (SN12C) of the same molecule?
A: > 100000 nM (inactive)

Q: What about the GI50 (SK-MEL-28) of the same molecule?
A: > 100000 nM (inactive)

Q: What about the GI50 (A498) of the same molecule?
A: > 100000 nM (inactive)

Q: What about the GI50 (SF-268) of the same molecule?
A: > 100000 nM (inactive)

Q: What about the GI50 (SK-MEL-2) of the same molecule?
A: > 100000 nM (inactive)

Q: What about the GI50 (SR) of the same molecule?
A: > 100000 nM (inactive)

Q: And the GI50 (UACC-62)?
A: > 100000 nM (inactive)

Q: What about the GI50 (HCT-116) of the same molecule?
A: > 100000 nM (inactive)

Q: And the GI50 (K562)?
A: > 100000 nM (inactive)

Q: And the GI50 (COLO 205)?
A: > 100000 nM (inactive)

Q: What about the GI50 (A549) of the same molecule?
A: > 100000 nM (inactive)

Q: What about the GI50 (DMS-273) of the same molecule?
A: > 100000 nM (inactive)

Q: And the GI50 (CCRF-CEM)?
A: > 100000 nM (inactive)

Q: What about the GI50 (XF498) of the same molecule?
A: > 100000 nM (inactive)

Q: What about the GI50 (KM12) of the same molecule?
A: > 100000 nM (inactive)

Q: What about the GI50 (OVCAR-8) of the same molecule?
A: > 100000 nM (inactive)

Q: What about the GI50 (SF-295) of the same molecule?
A: > 100000 nM (inactive)

Q: What about the GI50 (HT-29) of the same molecule?
A: > 100000 nM (inactive)

Q: And the GI50 (OVCAR-3)?
A: > 100000 nM (inactive)

Q: And the GI50 (HOP-92)?
A: > 100000 nM (inactive)

Q: And the GI50 (NCI-H23)?
A: > 100000 nM (inactive)

Q: What about the GI50 (KM-20L2) of the same molecule?
A: > 100000 nM (inactive)

Q: What about the GI50 (SNB-75) of the same molecule?
A: > 100000 nM (inactive)

Q: What about the GI50 (MOLT-4) of the same molecule?
A: > 100000 nM (inactive)

Q: What about the GI50 (NCI-H226) of the same molecule?
A: > 100000 nM (inactive)

Q: And the GI50 (UACC-257)?
A: > 100000 nM (inactive)

Q: And the GI50 (LOX IMVI)?
A: > 100000 nM (inactive)

Q: What about the GI50 (NCI-H460) of the same molecule?
A: > 100000 nM (inactive)

Q: And the GI50 (U-251)?
A: > 100000 nM (inactive)

Q: What about the GI50 (ACHN) of the same molecule?
A: > 100000 nM (inactive)

Q: What about the GI50 (786-0) of the same molecule?
A: > 100000 nM (inactive)

Q: What about the GI50 (DLD-1) of the same molecule?
A: > 100000 nM (inactive)

Q: What about the GI50 (EKVX) of the same molecule?
A: > 100000 nM (inactive)

Q: What about the GI50 (IGROV-1) of the same molecule?
A: > 100000 nM (inactive)

Q: What about the GI50 (HL-60) of the same molecule?
A: > 100000 nM (inactive)

Q: And the GI50 (HCT-15)?
A: > 100000 nM

Q: What about the GI50 (M14) of the same molecule?
A: > 100000 nM (inactive)

Q: What about the GI50 (SNB-19) of the same molecule?
A: > 100000 nM (inactive)

Q: And the GI50 (OVCAR-4)?
A: > 100000 nM (inactive)

Q: And the GI50 (HOP-62)?
A: > 100000 nM (inactive)

Q: What about the GI50 (LXFL 529) of the same molecule?
A: > 100000 nM (inactive)

Q: What about the GI50 (HOP-18) of the same molecule?
A: > 100000 nM (inactive)

Q: COC(COC(N)=O)C1=C(N2CC2)C(=O)C(C)=C(N2CC2)C1=O (stereo not drawn) [CARBOQUONE] was tested. Which GI50 (MCF7) did it give?
A: < 10 nM (active)

Q: What about the GI50 (HCC 2998) of the same molecule?
A: 131 nM (active)

Q: What about the GI50 (SF-539) of the same molecule?
A: < 19.8 nM (active)

Q: What about the GI50 (TK-10) of the same molecule?
A: 239 nM (active)

Q: What about the GI50 (SNB-78) of the same molecule?
A: 574 nM (active)

Q: And the GI50 (M19-MEL)?
A: 96.8 nM (active)

Q: What about the GI50 (Malme-3M) of the same molecule?
A: 69.2 nM (active)

Q: And the GI50 (NCI-H522)?
A: 37.7 nM (active)

Q: And the GI50 (MDA-MB-231)?
A: 292 nM (active)

Q: What about the GI50 (UO-31) of the same molecule?
A: 30.7 nM (active)

Q: What about the GI50 (SK-MEL-5) of the same molecule?
A: 46 nM (active)

Q: What about the GI50 (RPMI-8226) of the same molecule?
A: 117 nM (active)

Q: What about the GI50 (SK-OV-3) of the same molecule?
A: 71.8 nM (active)

Q: What about the GI50 (SW-620) of the same molecule?
A: 30.2 nM (active)

Q: And the GI50 (RXF 393)?
A: 107 nM (active)

Q: What about the GI50 (DMS-114) of the same molecule?
A: 63 nM (active)

Q: And the GI50 (SN12C)?
A: < 26.6 nM (active)

Q: And the GI50 (CAKI-1)?
A: < 11.9 nM (active)

Q: And the GI50 (OVCAR-5)?
A: 106 nM (active)

Q: What about the GI50 (SK-MEL-28) of the same molecule?
A: 172 nM (active)

Q: What about the GI50 (A498) of the same molecule?
A: 90.4 nM (active)

Q: And the GI50 (SF-268)?
A: < 16 nM (active)

Q: And the GI50 (SK-MEL-2)?
A: 193 nM (active)

Q: What about the GI50 (SR) of the same molecule?
A: < 22.1 nM (active)

Q: What about the GI50 (UACC-62) of the same molecule?
A: < 15.6 nM (active)

Q: What about the GI50 (HCT-116) of the same molecule?
A: 28.4 nM (active)

Q: And the GI50 (K562)?
A: 35.2 nM (active)

Q: What about the GI50 (COLO 205) of the same molecule?
A: 113 nM (active)

Q: What about the GI50 (A549) of the same molecule?
A: 18.5 nM (active)

Q: And the GI50 (MDA-MB-435)?
A: 35.9 nM (active)

Q: What about the GI50 (NCI/ADR-RES) of the same molecule?
A: 24.1 nM (active)

Q: And the GI50 (MDA-N)?
A: 108 nM (active)

Q: And the GI50 (BT-549)?
A: 103 nM (active)

Q: And the GI50 (DMS-273)?
A: < 10 nM (active)

Q: And the GI50 (CCRF-CEM)?
A: 35.5 nM (active)

Q: What about the GI50 (XF498) of the same molecule?
A: 154 nM (active)

Q: What about the GI50 (KM12) of the same molecule?
A: 122 nM (active)

Q: What about the GI50 (PC-3) of the same molecule?
A: 213 nM (active)

Q: What about the GI50 (OVCAR-8) of the same molecule?
A: 31.8 nM (active)

Q: And the GI50 (SF-295)?
A: 17.8 nM (active)

Q: What about the GI50 (HT-29) of the same molecule?
A: 34.2 nM (active)

Q: What about the GI50 (DU-145) of the same molecule?
A: < 10 nM (active)

Q: And the GI50 (OVCAR-3)?
A: 60.7 nM (active)

Q: And the GI50 (HOP-92)?
A: 219 nM (active)

Q: And the GI50 (Hs-578T)?
A: 218 nM (active)

Q: And the GI50 (NCI-H23)?
A: < 14.8 nM (active)

Q: What about the GI50 (KM-20L2) of the same molecule?
A: 60.8 nM (active)

Q: And the GI50 (SNB-75)?
A: 24.6 nM (active)

Q: And the GI50 (MOLT-4)?
A: 41.8 nM (active)

Q: And the GI50 (NCI-H226)?
A: 71.9 nM (active)

Q: What about the GI50 (UACC-257) of the same molecule?
A: 126 nM (active)

Q: What about the GI50 (LOX IMVI) of the same molecule?
A: < 14.4 nM (active)

Q: And the GI50 (NCI-H460)?
A: < 10 nM (active)

Q: And the GI50 (U-251)?
A: 36.6 nM (active)

Q: What about the GI50 (ACHN) of the same molecule?
A: < 10 nM (active)

Q: What about the GI50 (786-0) of the same molecule?
A: 20.1 nM (active)

Q: What about the GI50 (DLD-1) of the same molecule?
A: 113 nM (active)

Q: And the GI50 (EKVX)?
A: 470 nM (active)

Q: What about the GI50 (IGROV-1) of the same molecule?
A: 197 nM (active)

Q: What about the GI50 (HL-60) of the same molecule?
A: < 11.4 nM (active)

Q: What about the GI50 (HCT-15) of the same molecule?
A: 59.4 nM

Q: And the GI50 (M14)?
A: 39.5 nM (active)

Q: And the GI50 (SNB-19)?
A: 64.6 nM (active)

Q: And the GI50 (T47D)?
A: 43.5 nM (active)

Q: And the GI50 (OVCAR-4)?
A: 126 nM (active)

Q: What about the GI50 (HOP-62) of the same molecule?
A: < 15.4 nM (active)

Q: And the GI50 (LXFL 529)?
A: 196 nM (active)

Q: What about the GI50 (HOP-18) of the same molecule?
A: 199 nM (active)
